Columns and labels:
[1] = molecular target: T1, purified 11β-HSD1 (recombinant, expressed in E. coli) (Homo sapiens, UniProt P28845); test: Inhibition of purified 11β-HSD1, Scintillation Proximity Assay; format: biochemical; conditions: recombinant enzyme, 3H cortisone, NADPH, room temperature
T1 construct: made in house; host or cells: E. coli
Protocol: (§1) The inhibition of purified 11β-HSD1 by compounds of Formula I was measured as follows using a Scintillation Proximity Assay. All reactions were carried out at room temperature in 96 well flexible Microbeta reaction plates. The assay begins by adding 1 microliter of a 0.1 mM solution of a compound of Formula I in DMSO previously diluted in half-log increments (8 points) starting at 1 micromolar final concentration. To this dot was added 50 microliters of substrate solution (50 mM HEPES, pH 7.4, 100 mM KCl, 5 mM NaCl, 2 mM MgCl2 containing […] of ^3H cortisone, 1 mM NADPH). After a 10 minute incubation, 50 microliters of enzyme solution containing 20 nM recombinant 11β-HSD1 (expressed in E. coli, and affinity purified) was added, The reaction was incubated for 90 minutes, and stopped by adding 50 microliters of SPA bead mix (18-β-glycyrrhetinic acid, 10 micromolar final, 5 mg/ml protein A coated YSi SPA beads, and 1-microgram/ml alpha-cortisol antibody (East Coast Biologics). The plate shaken for 120 minutes, and the radioactivity corresponding to ^3H cortisol was measured on a Wallac Microbeta.

microsomal 11β-HSD1 = microsomal 11β-HSD1 (Homo sapiens, UniProt P28845); test: Inhibition of microsomal 11β-HSD1, Scintillation Proximity Assay; format: biochemical; conditions: microsomal enzyme, same manner as purified enzyme assay
Protocol: as §1
The inhibition of microsomal 11β-HSD1 was carried out in the same manner.

[2] = molecular target: T2, 11β-HSD1 in whole cells (omental adipocytes) (Homo sapiens, UniProt P28845); test: Inhibition of 11β-HSD1 in whole cells (omental adipocytes), cortisone to cortisol conversion, SPA; format: cell-based; conditions: 100 nM [3H] cortisone, 37 degrees C
T2 construct: host or cells: omental adipocytes differentiated from preadipocytes
Protocol: The inhibition of 11β-HSD1 by compounds of Formula I in whole cells was measured as follows. Omental adipocytes cultured in 96-well plates were purchased from Zen-Bio, Inc. and used at least two weeks after differentiation from precursor preadipocytes started in medium supplemented with adipogenic and lipogenic hormones (human insulin, dexamethasone, isobutylmethylxanthine and PPAR-gamma agonist). The cells were maintained in full adipocyte medium (DMEM/Ham's F-12 (1:1, v/v), HEPES pH 7.4, fetal bovine serum, penicillin, streptomycin and Amphotericin B, supplied by Zen-Bio, Inc.) at 37 degrees C., 5% CO2 and transferred into serum-free, phenol red free medium for overnight incubation. The assay was performed in a total volume of 200 microliters. The cells were pre-incubated with serum-free, phenol red free medium containing 0.1% (v/v) of DMSO and various concentrations of compounds of Formula I at least 1 h before [^3H] cortisone in ethanol (50 Ci/mmol, ARC, Inc.) was added to achieve final concentration of cortisone of 100 nM. The cells were incubated for 3-4 at 37 degrees Centigrade, 5% CO2. Negative controls were incubated without radioactive substrate and received the same amount of [^3H] cortisone at the end of the incubation. Formation of [^3H] cortisol was monitored by analyzing 25 microliters of each supernatant in scintillation proximity assay (SPA). (Solly, K.; Mundt, S. S.; Zokian, H. J.; Ding, G. J.; Hermanowski-Vosatka, A.; Strulovici, B.; Zheng, W. Assay Drug Dev. Technol. 2005, 3, 377-384),

microsomal 11β-HSD1, sequence (P28845 whole entry): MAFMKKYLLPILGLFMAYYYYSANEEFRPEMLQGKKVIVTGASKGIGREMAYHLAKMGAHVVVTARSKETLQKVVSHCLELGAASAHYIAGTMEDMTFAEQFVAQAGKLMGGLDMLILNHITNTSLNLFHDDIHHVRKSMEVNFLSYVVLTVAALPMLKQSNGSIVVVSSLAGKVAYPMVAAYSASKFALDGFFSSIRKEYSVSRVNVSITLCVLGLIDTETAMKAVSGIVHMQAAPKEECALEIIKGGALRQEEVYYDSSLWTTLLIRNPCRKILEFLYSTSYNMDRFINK
T2 sequence (P28845 whole entry): as above
T1 sequence (P28845 whole entry): as above

Structure (SMILES): CC(C)(C)[C@H]1CN(C2C3CC4CC(C3)CC2C4)C(=O)O1 (stereo partly drawn) [Example 12, (S)-3-(2-adamantyl)-5-tert-butyloxazolidin-2-one]
- IC50 [1]: < 50 nM
- IC50 (microsomal 11β-HSD1): < 50 nM
- IC50 [2]: < 50 nM

Structure (SMILES): CN1C(=O)N(C2C3CC4CC(C3)CC2C4)C[C@@H]1C(C)(C)C (stereo partly drawn) [Example 28, (S)-1-(2-adamantyl)-4-tert-butyl-3-methylimidazolidin-2-one]
- IC50 [1]: < 50 nM
- IC50 (microsomal 11β-HSD1): < 50 nM
- IC50 [2]: < 50 nM

Structure (SMILES): CC(C)[C@H]1CN(C2C3CC4CC(C3)CC2C4)C(=O)N1 (stereo partly drawn) [Example 33, (S)-4-isopropyl-1-(2-adamantyl)imidazolidin-2-one]
- IC50 (microsomal 11β-HSD1): < 50 nM
- IC50 [2]: < 50 nM

— US8835426B2, “Cyclic urea and carbamate inhibitors of 11β-hydroxysteroid dehydrogenase 1” (Vitae Pharmaceuticals, Inc., priority 2007, dated 2014)
